According to patent US20150297643A1, “INHIBITION OF RHO AND OR ROCK AND CELL TRANSPLANTATION” (priority 2012, published 2015):

Tested on: retinal ganglion cells (RGCs)
Format: in vivo, rat

C[C@@H](N)C1CCN(S(=O)(=O)c2cccc3cnccc23)CC1 [BA-1049]
neuroprotection of RGCs (highest dose tested (10 uM and 100 uM BA-1049 tested)): modest neuroprotection | effect on RGC survival (FIG. 5) (very high concentration (1 mM)): detectable effect

C[C@@H](N)[C@H]1CC[C@H](C(=O)Nc2ccncc2)CC1 [Y-27632]
neuroprotective effect on RGCs (100 uM and 1 mM Y-27632, one week after optic nerve injury): No neuroprotective effect | rescue of neurons from trauma-induced cell death (Example 8, summary) (rat, in vivo): not able to rescue neurons from trauma-induced cell death

C3-transferase
RGCs protected after axotomy (rat, in vivo): 80%
